Experimental data: patent US9394290B2, “Selective CYP11B1 inhibitors for the treatment of cortisol dependent diseases” (UNIVERSITAET DES SAARLANDES CAMPUS SAARBRUECKEN, priority 2010, dated 2016)

How the values were obtained:
human CYP11B1 = human CYP11B1 (Homo sapiens (Human), UniProt P15538); experiment: Cellular assay for CYP11B1 inhibition (V79MZh11B1 hamster fibroblasts, substrate 11-deoxycorticosterone); conditions: for sf: selectivity factor: IC50 (CYP11B2)/IC50 (CYP11B1): ratio IC50 (CYP11B2)/IC50 (CYP11B1); for IC50: read-out: IC50 value CYP11B1, Hamster fibroblasts expressing human CYP11B1, substrate 11-deoxycorticosterone, 100 nM, mean of at least three experiments
human CYP11B1, sequence (P15538 25-503): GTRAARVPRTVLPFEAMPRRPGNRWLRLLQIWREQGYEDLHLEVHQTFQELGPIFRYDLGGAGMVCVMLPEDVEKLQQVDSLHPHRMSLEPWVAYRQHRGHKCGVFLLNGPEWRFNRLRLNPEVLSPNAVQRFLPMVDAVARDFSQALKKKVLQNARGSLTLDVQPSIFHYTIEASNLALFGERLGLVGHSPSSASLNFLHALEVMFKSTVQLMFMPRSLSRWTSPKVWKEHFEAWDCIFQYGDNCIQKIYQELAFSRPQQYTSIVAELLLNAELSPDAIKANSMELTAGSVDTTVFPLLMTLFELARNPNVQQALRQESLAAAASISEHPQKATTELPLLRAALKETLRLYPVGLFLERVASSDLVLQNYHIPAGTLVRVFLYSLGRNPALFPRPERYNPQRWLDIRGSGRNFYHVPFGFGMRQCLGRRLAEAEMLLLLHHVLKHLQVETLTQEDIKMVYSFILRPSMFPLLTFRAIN

human CYP11B2 = human CYP11B2 (Homo sapiens (Human), UniProt P19099); experiment: Cellular assay for CYP11B2 inhibition (V79MZh11B2 hamster fibroblasts, substrate 11-deoxycorticosterone); conditions: for IC50: read-out: IC50 value CYP11B2, Hamster fibroblasts expressing human CYP11B2, 100 nM, mean of at least three experiments, n.i. = no inhibition at an inhibitor concentration of 500 nM
human CYP11B2, sequence (P19099 25-503): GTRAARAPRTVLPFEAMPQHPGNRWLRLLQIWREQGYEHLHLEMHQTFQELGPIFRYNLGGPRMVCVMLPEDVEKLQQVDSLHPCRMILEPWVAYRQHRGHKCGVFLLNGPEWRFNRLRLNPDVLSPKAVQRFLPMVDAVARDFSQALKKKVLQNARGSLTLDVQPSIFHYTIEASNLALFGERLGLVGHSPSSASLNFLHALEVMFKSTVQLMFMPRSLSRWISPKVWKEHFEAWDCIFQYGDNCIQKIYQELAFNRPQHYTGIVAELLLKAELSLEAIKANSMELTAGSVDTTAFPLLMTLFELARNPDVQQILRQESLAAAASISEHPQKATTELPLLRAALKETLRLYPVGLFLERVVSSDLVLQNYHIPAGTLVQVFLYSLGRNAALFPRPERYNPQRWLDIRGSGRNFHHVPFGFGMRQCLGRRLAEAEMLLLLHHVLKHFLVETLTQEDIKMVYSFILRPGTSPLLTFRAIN

human CYP17 = human CYP17 (Homo sapiens (Human), UniProt P05093); experiment: CYP17 inhibition assay (membrane fraction of E. coli expressing human CYP17, substrate progesterone); format: biochemical; conditions: 25 μM, inhibitor concentration 2.0 μM, read-out: inhibition (%) CYP 17
human CYP17, sequence (P05093 whole entry): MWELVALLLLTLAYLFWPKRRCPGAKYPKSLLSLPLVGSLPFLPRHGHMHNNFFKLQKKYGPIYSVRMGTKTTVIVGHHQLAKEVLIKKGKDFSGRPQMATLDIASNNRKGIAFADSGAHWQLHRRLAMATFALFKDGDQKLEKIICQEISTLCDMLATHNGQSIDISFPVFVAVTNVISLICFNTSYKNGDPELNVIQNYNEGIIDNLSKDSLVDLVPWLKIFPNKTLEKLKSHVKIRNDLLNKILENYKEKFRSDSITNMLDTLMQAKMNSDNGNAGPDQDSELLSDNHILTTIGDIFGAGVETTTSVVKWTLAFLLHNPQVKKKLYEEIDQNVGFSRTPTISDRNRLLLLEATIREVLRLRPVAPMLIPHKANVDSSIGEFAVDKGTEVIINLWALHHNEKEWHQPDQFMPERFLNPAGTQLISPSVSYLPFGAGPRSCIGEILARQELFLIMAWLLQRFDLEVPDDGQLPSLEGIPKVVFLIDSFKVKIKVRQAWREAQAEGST
Method: Recombinant E. coli pJL17/OR coexpressing human CYP17 and rat NADPH-P450-reductase were grown and stored as described by Ehmer et al. (J. Steroid Biochem. Mol. Biol., 2000, 75, 57-63)
For isolation of membrane fractions, 5 ml of bacterial suspension with an OD578 of 50 were washed using phosphate buffer (0.05 M, pH 7.4, 1 mM MgCl2, 0.1 mM EDTA and 0.1 mM dithiothreitol). Bacteria were harvested by centrifugation (2000×g) and the pellet was resuspended in 10 ml ice-cold TES buffer (0.1 M tris-acetate, pH 7.8, 0.5 mM EDTA, 0.5 M sucrose). Lysozyme was added with 10 ml of ice-cold water resulting in a concentration of 0.2 mg/ml followed by incubation for 30 min on ice with continuous shaking. Spheroplasts were harvested by centrifugation (12000×g, 10 min), and resuspended in 4 ml of ice-cold phosphate buffer (the same as described above plus 0.5 mM phenylmethylsulfonylfluoride (PMSF)).
After that spheroplasts were sonicated on ice (pulse 20 s on, 30 s off, five times), using a sonicator Sonopuls HD60 (Bandelin, Berlin, Germany) at maximum power. Unbroken cells and debris were pelleted at 3000×g for 7 min, and the supernatant was centrifuged at 50000×g for 20 min at 4° C. The membrane pellet was resuspended in 2 ml of phosphate buffer (the same as described above) with 20% glycerol using an ultra-turrax T25 (IKA-Labortechnik, Staufen, Germany). Protein concentration was determined by the method of Lowry.
The assay was performed as follows: a solution of 6.25 nmol progesterone (in 5 μl methanol) in 140 μl phosphate buffer (0.05 M, pH 7.4, 1 mM MgCl2, 0.1 mM EDTA and 0.1 mM dithiothreitol), 50 μl NADPH generating system (in phosphate buffer with 10 mM NADP, 100 mM glucose-6-phosphate and 2.5 units of glucose-6-phosphate-dehydrogenase) and inhibitor (in 5 μl DMSO) was pre-incubated at 37° C. for 5 min. Control cups were supplemented with 5 μl DMSO without inhibitor. The reaction was started by adding 50 μl of a 1:5 diluted membrane suspension in phosphate buffer (0.8-1.0 mg protein per ml). The maximum DMSO concentration in each sample was 2%. After mixing, incubation was performed for 30 min at 37° C. Subsequently the reaction was stopped with 50 μl 1 N HCl.
Extraction of the steroids was performed by addition of 1.0 ml ethyl acetate and vigorous shaking for 1 min. After a centrifugation step (5 min, 2500×g) the organic phase (0.9 ml) was transferred into a fresh cup containing 0.25 ml of incubation buffer and 50 μl 1 N HCl and mixed again. After centrifugation, 0.8 ml ethyl acetate solution was evaporated to dryness in a fresh cup. After that the steroids were redissolved in solvent for HPLC analysis (Hutschenreuter et. al. J. Enz. Inhib. Med. Chem. 2004, 19, 17-32).
The above experiment was conducted at least three times and a mean value for the CYP17 inhibition calculated.

Human placental CYP19 = Human placental CYP19 (Homo sapiens (Human), UniProt P11511); experiment: CYP19 (aromatase) assay, human placental microsomes, 3H2O release; format: biochemical; conditions: substrate androstenedione, 500 nM, inhibitor concentration 500 nM, read-out: inhibition (%) CYP 19
Human placental CYP19, sequence (P11511 whole entry): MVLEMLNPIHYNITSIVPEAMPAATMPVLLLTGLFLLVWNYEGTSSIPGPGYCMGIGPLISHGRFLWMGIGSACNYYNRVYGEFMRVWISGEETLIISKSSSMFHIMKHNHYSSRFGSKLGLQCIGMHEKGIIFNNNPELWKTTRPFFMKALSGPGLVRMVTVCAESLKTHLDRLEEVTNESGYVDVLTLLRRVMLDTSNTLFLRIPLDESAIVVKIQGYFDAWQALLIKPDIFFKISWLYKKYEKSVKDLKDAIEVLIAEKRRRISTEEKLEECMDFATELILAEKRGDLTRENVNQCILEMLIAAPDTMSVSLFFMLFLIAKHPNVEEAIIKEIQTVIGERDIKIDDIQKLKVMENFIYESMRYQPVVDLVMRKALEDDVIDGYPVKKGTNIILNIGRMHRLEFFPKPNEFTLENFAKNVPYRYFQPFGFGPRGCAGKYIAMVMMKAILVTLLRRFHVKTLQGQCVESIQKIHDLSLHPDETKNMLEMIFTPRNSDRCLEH
Method: The enzyme was obtained from the microsomal fraction of freshly delivered human term placental tissue according to the procedure of Thompson and Siiteri (Thompson, E. A.; Siiteri, P. K. J. Biol. Chem. 1974, 249, 5364).
The isolated microsomes were suspended in a minimum volume of phosphate buffer (0.05 M, pH 7.4, 20% glycerol). Additionally, DTT (dithiothreitol, 10 mM) and EDTA (1 mM) were added to protect the enzyme from degradation. The enzyme preparation was stored at −70° C.
The assay was performed monitoring enzyme activity by measuring the ^3H2O formed from [1β-^3H]androstenedione during aromatization (Hartmann et al. J. Med. Chem. 1986, 29, 1362-1369). […] The test compounds were dissolved in DMSO and diluted with buffer. The final DMSO concentration in the control and inhibitor incubation was 2%. Each tube was pre-incubated for 5 min at 30° C. in a water bath. Microsomal protein was added to start the reaction (0.1 mg). The total volume for each incubation was 0.25 ml. The reaction was terminated by the addition of 200 μl of a cold 1 mM HgCl2 solution. After addition of 200 μl of an aqueous dextran-coated charcoal (DCC) suspension (2%), the vials were shaken for 20 min and centrifuged at 1500×g for 5 min to separate the charcoal-absorbed steroids. The supernatant was assayed for ^3H2O by counting in a scintillation mixture using a β-counter. The calculation of the IC50 values was performed by plotting the percent inhibition vs. the concentration of inhibitor on a semi-log plot.
The above experiment was conducted at least three times and a mean value for the CYP19 inhibition calculated.

Compound | sf: selectivity factor: IC50 (CYP11B2)/IC50 (CYP11B1) (human CYP11B1) | IC50 (human CYP11B1) [nM] | IC50 (human CYP11B2) [nM] | inhibition at 2 µM (human CYP17) [%] | inhibition at 0.5 µM (Human placental CYP19) [%] | IC50 value CYP11B2 (human CYP11B2; Hamster fibroblasts expressing human CYP11B2, 100 nM, mean of at least three experiments, n.i. = no inhibition at an inhibitor concentration of 500 nM)
c1ccc(-c2ccc(Cn3ccnc3)cn2)cc1 [Compound 1, 5-Imidazol-1-ylmethyl-2-phenyl-pyridine] | 18 | 152 | 2770 |  |  | 
Brc1ccc(Cn2ccnc2)cn1 [Compound 1a, 5-Imidazol-1-ylmethyl-2-bromopyridine] |  | 500 | > 1000 |  |  | 
c1cc(Cn2ccnc2)ccn1 [Compound 2, 4-Imidazol-1-ylmethyl-pyridine] |  | 663 | > 1000 |  |  | 
c1cncc(Cn2ccnc2)c1 [Compound 3, 3-Imidazol-1-ylmethyl-pyridine] |  | 816 | > 1000 |  |  | 
N#Cc1ncccc1Cn1ccnc1 [Compound 4, 3-Imidazol-1-ylmethyl-pyridine-2-carbonitrile] |  | 971 | > 1000 |  |  | 
Brc1ncccc1Cn1ccnc1 [Compound 5, 2-Bromo-3-imidazol-1-ylmethyl-pyridine] | 15 | 61 | 911 | 3 | 2 | 
Clc1ncc(Cn2ccnc2)cc1Br [Compound 6, 3-Bromo-2-chloro-5-imidazol-1-ylmethyl-pyridine] | 3.4 | 168 | 576 |  |  | 
Fc1ccccc1-c1ccc(Cn2ccnc2)cn1 [Compound 7, 2-(2-Fluoro-phenyl)-5-imidazol-1-ylmethyl-pyridine] | 24 | 72 | 1740 | 3 | 0 | 
Fc1cccc(-c2ccc(Cn3ccnc3)cn2)c1 [Compound 8, 2-(3-Fluoro-phenyl)-5-imidazol-1-ylmethyl-pyridine] |  | 320 | > 1000 | 1 |  | 
Fc1ccc(-c2ccc(Cn3ccnc3)cn2)cc1 [Compound 9, 2-(4-Fluoro-phenyl)-5-imidazol-1-ylmethyl-pyridine] | 10 | 213 | 2150 | 5 |  | 
Fc1ccc(-c2ccc(Cn3ccnc3)cn2)cc1F [Compound 10, 2-(3,4-Difluoro-phenyl)-5-imidazol-1-ylmethyl-pyridine] | 5 | 329 | 1660 | 0 |  | 
Oc1ccc(-c2ccc(Cn3ccnc3)cn2)cc1F [Compound 11, 2-Fluoro-4-(5-imidazol-1-ylmethyl-pyridin-2-yl)-phenol] | 14 | 17 | 237 | 2.6 | 0 | 
COc1ccc(-c2ccc(Cn3ccnc3)cn2)cc1 [Compound 13, 5-Imidazol-1-ylmethyl-2-(4-methoxy-phenyl)pyridine] |  | 782 | > 1000 | 0 |  | 
COc1ccc(-c2ccc(Cn3ccnc3)cn2)cc1OC [Compound 14, 2-(3,4-Dimethoxy-phenyl)-5-imidazol-1-ylmethyl-pyridine] |  | > 1000 | > 1000 | 2 |  | 
N#Cc1cccc(-c2ccc(Cn3ccnc3)cn2)c1 [Compound 19, 3-(5-Imidazol-1-ylmethyl-pyridin-2-yl)-benzonitrile] |  | 409 | > 1000 |  |  | 
N#Cc1ccc(-c2ccc(Cn3ccnc3)cn2)cc1 [Compound 20, 4-(5-Imidazol-1-ylmethyl-pyridin-2-yl)-benzonitrile] |  | 782 | > 1000 |  |  | 
O=Cc1ccc(-c2ccc(Cn3ccnc3)cn2)cc1 [Compound 21, 4-(5-Imidazol-1-ylmethyl-pyridin-2-yl)-benzaldehyde] |  | 246 | > 1000 | 0 |  | 
c1ccc2cc(-c3ccc(Cn4ccnc4)cn3)ccc2c1 [Compound 24, 5-Imidazol-1-ylmethyl-2-naphthalen-2-yl-pyridine] | 3.2 | 246 | 782 |  |  | 
c1cncc(-c2ccc(Cn3ccnc3)cn2)c1 [Compound 26, 5-Imidazol-1-ylmethyl-[2,3′]bipyridinyl] | 8 | 502 | 3960 |  |  | 
c1cc(-c2ccc(Cn3ccnc3)cn2)ccn1 [Compound 27, 5-Imidazol-1-ylmethyl-[2,4′]bipyridinyl] | 3.5 | 139 | 487 |  |  | 
c1cn(Cc2ccc(-c3cncnc3)nc2)cn1 [Compound 28, 5-(5-Imidazol-1-ylmethyl-pyridin-2-yl)-pyrimidine] |  | 971 |  |  |  | n.i.^d
COc1ccc(-c2ccc(Cn3ccnc3)cn2)cn1 [Compound 29, 5-Imidazol-1-ylmethyl-6′-methoxy-[2,3′]bipyridinyl] |  | > 1000 | > 1000 |  |  | 
c1ccc2c(-c3ccc(Cn4ccnc4)cn3)cncc2c1 [Compound 30, 4-(5-Imidazol-1-ylmethyl-pyridin-2-yl)-isoquinoline] | 10 | 95 | 914 |  |  | 
Clc1ccc(-c2ccc(Cn3ccnc3)cn2)s1 [Compound 33, 2-(5-Chloro-thiophen-2-yl)-5-imidazol-1-ylmethyl-pyridine] | 2.6 | 362 | 929 |  |  | 
c1ccc2sc(-c3ccc(Cn4ccnc4)cn3)cc2c1 [Compound 37, 2-Benzo[b]thiophen-2-yl-5-imidazol-1-ylmethyl-pyridine] | 1.0 | 269 | 281 |  |  | 
c1ccc2oc(-c3ccc(Cn4ccnc4)cn3)cc2c1 [Compound 41, 2-Benzo[b]furan-2-yl-5-imidazol-1-ylmethyl-pyridine] |  | 500 | > 1000 |  |  | 
CCOC(=O)c1cncn1[C@H](C)c1ccccc1 [ETO, etomidate, reference compound] |  |  | 0.1 |  |  | 
